Experimental data published in US4178284A, “Octapeptides” (American Home Products Corporation, priority 1978, dated 1979).

Legend:
[1] = test system: analgesia; details: Tseng et al.; cited from earlier work
[2] = test system: analgesia; details: Loh et al.; cited from earlier work
[3] = test system: growth hormone and prolactin release; details: rat; Dupont et al., Rivier et al.; cited from earlier work
[4] = test system: growth hormone release; assay: growth hormone release, serum concentration, procedure of Lien et al. Febs. Letters 88 208-210 (1978); type: in vivo; details: 2 milligrams per kilogram; control 55±8 ng/ml; p<0.05
Procedure: Illustrative of the growth hormone releasing ability of the compounds of this invention is the activity of des-(66-88)-β-endorphin, representative of the other compounds, which at 2 milligrams per kilogram caused growth hormone release to result in a serum concentration of 380±124 ng/ml. as related to the control concentration of 55±8 ng/ml. at a confidence level of p<0.05, following the procedure of Lien et al. Febs. Letters 88 208-210 (1978).

[5] = test system: analgesia; assay: analgesia on intracerebroventricular administration; type: in vivo

Substance | analgesic activity by intravenous injection [1] | analgesic activity by intracerebral administration [2] | growth hormone release stimulation [3] | prolactin release stimulation [3] | growth hormone serum concentration [4] | intracerebroventricular analgesic activity [5]
H-Tyr-Gly-Gly-Phe-Met-Thr-Ser-Glu-Lys-Ser-Gln-Thr-Pro-Leu-Val-Thr-Leu-Phe-Lys-Asn-Ala-Ile-Ile-Lys-Asn-Ala-His-Lys-Lys-Gly-Gln-OH (H-YGGFMTSEKSQTPLVTLFKNAIIKNAHKKGQ-OH) [β-Endorphin, naturally occurring peptide isolated by Bradbury et al. and Li et al] | potent analgesic activity | potent analgesic activity | growth hormone and prolactin release stimulation | growth hormone and prolactin release stimulation | – | –
L-Tyrosyl-glycyl-glycyl-L-phenylalanyl-L-methionyl-L-lysyl-glycyl-L-glutamine diacetate [des-(66-88)-β-endorphin] | – | – | – | – | 380 ± 124 ng/mL | intracerebroventricular analgesic agents
